Source: patent publication US9884063B2, “Amido-substituted azole compounds” (Bayer Pharma Aktiengesellschaft, priority 2014, dated 2018)

Molecular target: T1, TNKS1 (Homo sapiens, UniProt O95271)
T1 sequence (O95271 1-1327): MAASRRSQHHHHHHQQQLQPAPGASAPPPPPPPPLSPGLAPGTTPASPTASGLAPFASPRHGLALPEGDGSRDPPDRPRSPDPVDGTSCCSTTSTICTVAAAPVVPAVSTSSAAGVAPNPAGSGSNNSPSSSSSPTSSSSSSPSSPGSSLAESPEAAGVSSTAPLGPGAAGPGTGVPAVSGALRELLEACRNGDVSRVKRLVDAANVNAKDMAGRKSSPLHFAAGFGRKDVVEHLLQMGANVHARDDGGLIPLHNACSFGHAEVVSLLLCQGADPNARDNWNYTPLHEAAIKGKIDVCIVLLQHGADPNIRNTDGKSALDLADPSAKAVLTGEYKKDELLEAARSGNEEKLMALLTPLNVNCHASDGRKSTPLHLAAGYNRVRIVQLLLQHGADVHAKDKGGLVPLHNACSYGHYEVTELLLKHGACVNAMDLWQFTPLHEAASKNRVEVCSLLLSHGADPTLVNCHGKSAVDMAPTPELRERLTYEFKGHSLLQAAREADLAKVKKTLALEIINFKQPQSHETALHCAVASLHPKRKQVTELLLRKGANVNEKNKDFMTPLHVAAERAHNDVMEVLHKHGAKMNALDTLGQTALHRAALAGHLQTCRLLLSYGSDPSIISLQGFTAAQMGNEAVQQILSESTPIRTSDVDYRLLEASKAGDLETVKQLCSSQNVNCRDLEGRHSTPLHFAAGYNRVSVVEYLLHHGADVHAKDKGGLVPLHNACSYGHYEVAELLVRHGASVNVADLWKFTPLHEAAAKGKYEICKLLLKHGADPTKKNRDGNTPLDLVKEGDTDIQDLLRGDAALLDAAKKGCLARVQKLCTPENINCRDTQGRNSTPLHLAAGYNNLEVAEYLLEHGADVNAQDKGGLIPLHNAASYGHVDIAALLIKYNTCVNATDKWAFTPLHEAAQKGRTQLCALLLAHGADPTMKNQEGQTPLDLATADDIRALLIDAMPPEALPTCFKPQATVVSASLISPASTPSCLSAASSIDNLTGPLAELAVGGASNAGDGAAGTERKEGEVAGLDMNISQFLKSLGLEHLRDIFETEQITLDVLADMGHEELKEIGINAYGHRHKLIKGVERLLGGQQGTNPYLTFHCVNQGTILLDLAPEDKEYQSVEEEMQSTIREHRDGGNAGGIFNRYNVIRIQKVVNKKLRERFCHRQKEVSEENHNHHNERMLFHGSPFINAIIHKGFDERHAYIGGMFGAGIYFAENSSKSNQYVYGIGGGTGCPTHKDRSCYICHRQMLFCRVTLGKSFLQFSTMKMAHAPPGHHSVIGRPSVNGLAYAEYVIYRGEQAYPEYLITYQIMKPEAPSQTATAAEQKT
Assay: TNKS1 Assay 1 (TNKS1 Histone Ribosylation Assay Kit, biotin-labeled NAD+)
Type: biochemical
Details: chemiluminescent readout, 384 well
Protocol: The potency of the compounds according to the invention was assessed by applying an in vitro inhibition assay. The TNKS1 catalyzed NAD^+-dependent ribosylation of a suitable protein substrate was detected using a commercially available biotin/streptavidin binding based assay format [TNKS1 Histone Ribosylation Assay Kit (Biotin-labeled NAD+), Catalog #80579; BPS Bioscience, San Diego, USA]. Here, the incorporation of a biotin-labeled NAD+ during the TNKS1 catalyzed ribosylation reaction was detected with a streptavidin-HRP coupled chemi-luminescent readout. The intensity of the readout signal is proportional to the incorporated NAD^+. Inhibition of TNKS1 leads to a decreased incorporation of NAD^+ and consequently to a lower readout signal intensity. The concentration of a test compound which inhibits the enzyme activity by 50% (corresponds to half of the normed readout signal intensity) is reported as IC50.
The assay was conducted in a 384 well MTP format according to the manufacturer's protocol [bpsbioscience.com/poly-adp-ribose-polymerase/assay-kit/tnks1-histone-ribosylation-assay-kit-biotin-labeled-nad-80579 referencing: Brown, J. A., Marala, R. B. J. Pharmacol. Toxicol. Methods 2002 47:137-41] and using a BMG Pherastar MTP reader [BMG-Labtech, Offenburg, Germany].

IC50 (Table 1) [nM]	IC50 (first table) [nM]	Compound
1010	1010	CNC(=O)c1nc[nH]c1C(=O)Nc1ccc(NC(=O)c2cccc(Cl)c2Cl)cc1 [Example 1, N^5-{4-[(2,3-dichlorobenzoyl)amino]phenyl}-N^4-methyl-1H-imidazole-4,5-dicarboxamide]
> 100000		CNC(=O)c1nc[nH]c1C(=O)Nc1ccc(NC(=O)c2ccc(N3CCCC3)cc2F)cc1 [Example 3, N^5-(4-{[2-fluoro-4-(pyrrolidin-1-yl)benzoyl]amino}phenyl)-N^4-methyl-1H-imidazole-4,5-dicarboxamide]
120	120	CNC(=O)c1nc[nH]c1C(=O)Nc1ccc(NC(=O)c2ccc(N(C)C)cc2Cl)cc1 [Example 4, N^5-(4-{[2-chloro-4-(dimethylamino)benzoyl]amino}phenyl)-N^4-methyl-1H-imidazole-4,5-dicarboxamide]
320	320	CNC(=O)c1nc[nH]c1C(=O)Nc1ccc(NC(=O)c2ccc(F)cc2Cl)c(C)c1 [Example 5, N^5-{4-[(2-chloro-4-fluorobenzoyl)amino]-3-methylphenyl}-N^4-methyl-1H-imidazole-4,5-dicarboxamide]
50	50	CNC(=O)c1nc[nH]c1C(=O)Nc1ccc(NC(=O)c2ccncc2Cl)cc1 [Example 6, N^5-{4-[(3-chloroisonicotinoyl)amino]phenyl}-N^4-methyl-1H-imidazole-4,5-dicarboxamide]
1300	1300	CCC(C)NC(=O)c1ncoc1C(=O)Nc1ccc(NC(=O)c2ccc(F)cc2Cl)cc1 (stereo not drawn) [Example 7, N^4-sec-butyl-N^5-{4-[(2-chloro-4-fluorobenzoyl)amino]phenyl}-1,3-oxazole-4,5-dicarboxamide]
2270	2270	CC(NC(=O)c1ncoc1C(=O)Nc1ccc(NC(=O)c2ccc(F)cc2Cl)cc1)c1ccccc1 (stereo not drawn) [Example 8, N^5-{4-[(2-chloro-4-fluorobenzoyl)amino]phenyl}-N^4-(1-phenylethyl)-1,3-oxazole-4,5-dicarboxamide]
110	110	CNC(=O)c1nc[nH]c1C(=O)Nc1ccc(NC(=O)c2ccc(Cl)cc2Cl)cc1 [Example 9, N^5-{4-[(2,4-dichlorobenzoyl)amino]phenyl}-N^4-methyl-1H-imidazole-4,5-dicarboxamide]
310	310	CC(C)NC(=O)c1nc[nH]c1C(=O)Nc1ccc(NC(=O)c2ccc(F)cc2Cl)cc1 [Example 10, N^5-{4-[(2-chloro-4-fluorobenzoyl)amino]phenyl}-N^4-isopropyl-1H-imidazole-4,5-dicarboxamide]
220		CNC(=O)c1ncoc1C(=O)Nc1ccc(NC(=O)c2ccc(F)cc2Cl)cc1 [Example 11, N^5-{4-[(2-chloro-4-fluorobenzoyl)amino]phenyl}-N^4-methyl-1,3-oxazole-4,5-dicarboxamide]
20	20	CNC(=O)c1nc[nH]c1C(=O)Nc1ccc(NC(=O)c2ccc(F)cc2Cl)cc1 [Example 12, N^5-{4-[(2-chloro-4-fluorobenzoyl)amino]phenyl}-N^4-methyl-1H-imidazole-4,5-dicarboxamide]
420	420	COC(=O)c1ncoc1C(=O)Nc1ccc(NC(=O)c2ccc(F)cc2Cl)cc1 [Example 14, Methyl 5-({4-[(2-chloro-4-fluorobenzoyl)amino]phenyl}carbamoyl)-1,3-oxazole-4-carboxylate]
900	900	CC(C)NC(=O)c1ncoc1C(=O)Nc1ccc(NC(=O)c2ccc(F)cc2Cl)cc1 [Example 15, N^5-{4-[(2-chloro-4-fluorobenzoyl)amino]phenyl}-N^4-isopropyl-1,3-oxazole-4,5-dicarboxamide]
70	70	CNC(=O)c1nc[nH]c1C(=O)Nc1ccc(NC(=O)c2ccc(F)cc2Cl)nc1 [Example 16, N^5-{6-[(2-chloro-4-fluorobenzoyl)amino]pyridin-3-yl}-N^4-methyl-1H-imidazole-4,5-dicarboxamide]
> 100000	≥ 100000	CNC(=O)c1nc[nH]c1C(=O)Nc1ccc(NC(=O)c2c(-c3ccccc3)nn(C)c2Cl)cc1 [Example 17, N^5-(4-{[(5-chloro-1-methyl-3-phenyl-1H-pyrazol-4-yl)carbonyl]amino}phenyl)-N^4-methyl-1H-imidazole-4,5-dicarboxamide]
420	420	O=C(Nc1ccc(NC(=O)c2[nH]cnc2C(=O)NCc2ccccc2)cc1)c1ccc(F)cc1Cl [Example 18, N^4-benzyl-N^5-{4-[(2-chloro-4-fluorobenzoyl)amino]phenyl}-1H-imidazole-4,5-dicarboxamide]
1700	1700	CNC(=O)c1nc[nH]c1C(=O)Nc1ccc(NC(=O)c2ccccc2C)cc1 [Example 19, N^4-methyl-N^5-{4-[(2-methylbenzoyl)amino]phenyl}-1H-imidazole-4,5-dicarboxamide]
1700	1700	CNC(=O)c1nc[nH]c1C(=O)Nc1ccc(NC(=O)c2ccc(F)cc2)cc1 [Example 20, N^5-{4-[(4-fluorobenzoyl)amino]phenyl}-N^4-methyl-1H-imidazole-4,5-dicarboxamide]
770	770	CNC(=O)c1nc[nH]c1C(=O)Nc1ccc(NC(=O)c2c(C)cc(F)cc2C)cc1 [Example 23, N^5-{4-[(4-fluoro-2,6-dimethylbenzoyl)amino]phenyl}-N^4-methyl-1H-imidazole-4,5-dicarboxamide]
280	280	CN(C)C(=O)c1nc[nH]c1C(=O)Nc1ccc(NC(=O)c2ccc(F)cc2Cl)cc1 [Example 24, N^5-{4-[(2-chloro-4-fluorobenzoyl)amino]phenyl}-N^4,N^4-dimethyl-1H-imidazole-4,5-dicarboxamide]
70	70	CNC(=O)c1nc[nH]c1C(=O)Nc1ccc(NC(=O)c2ccc(OCCN(C)C)cc2Cl)cc1 [Example 25, N^5-[4-({2-chloro-4-[2-(dimethylamino)ethoxy]benzoyl}amino)phenyl]-N^4-methyl-1H-imidazole-4,5-dicarboxamide]
410	400	CNC(=O)c1nc[nH]c1C(=O)Nc1ccc(NC(=O)c2c(Cl)cccc2Cl)cc1 [Example 26, N^5-{4-[(2,6-dichlorobenzoyl)amino]phenyl}-N^4-methyl-1H-imidazole-4,5-dicarboxamide]
100	100	CNC(=O)c1nc[nH]c1C(=O)Nc1ccc(NC(=O)c2ccccc2Cl)cc1 [Example 27, N^5-{4-[(2-chlorobenzoyl)amino]phenyl}-N^4-methyl-1H-imidazole-4,5-dicarboxamide]
70	70	CNC(=O)c1nc[nH]c1C(=O)Nc1ccc(NC(=O)c2ccc(OCCN3CCN(C)CC3)cc2Cl)cc1 [Example 28, N^5-[4-({2-chloro-4-[2-(4-methylpiperazin-1-yl)ethoxy]benzoyl}amino)phenyl]-N^4-methyl-1H-imidazole-4,5-dicarboxamide]
140	140	O=C(Nc1ccc(NC(=O)c2[nH]cnc2C(=O)NCC(F)(F)F)cc1)c1ccc(F)cc1Cl [Example 30, N^4-{4-[(2-chloro-4-fluorobenzoyl)amino]phenyl}-N^5-(2,2,2-trifluoroethyl)-1H-imidazole-4,5-dicarboxamide]
